Test results from patent US20060014642A1, “Herbicidal compositions” (Bayer CropScience GmbH, priority 2004, published 2006).

Key:
Type in all cases: in vivo
Lolium multiflorum = experiment: Outdoor trial, post-emergence herbicidal action against Lolium multiflorum; conditions: application at the 2-5-leaf stage (post-emergence), evaluation 55 days after treatment
Protocol: (§1) The herbicidal efficacy of the active compounds or active compound mixtures was scored visually by comparing the treated pots (soil) with untreated controls. The damage and development of all above-ground plant parts was recorded. Scoring was done on a percentage scale (100% action=all plants dead or not emerged; 50% action=50% of the plants and green plant parts dead or not emerged; 0% action=no discernible action=like control plot). The score figures of in any case 4 repetitions (pots) were averaged.
(§2) Seeds or rhizome pieces of monocotyledonous and dicotyledonous weeds are placed in sandy loam in pots, covered with soil and grown in the greenhouse under good growth conditions (temperature, atmospheric humidity, water supply). Three weeks after sowing, the test plants are treated in the three-leaf stage with the compositions according to the invention. The compositions according to the invention, formulated as wettable powders or emulsion concentrates, are sprayed onto the green plant parts in various dosages using an application rate of 300 to 800 l of water/ha (converted). After the test plants have remained in the greenhouse under optimum growth conditions for about 3 to 4 weeks, the effect of the preparations is scored visually in comparison with untreated controls (scoring as in Example 1). The compositions according to the invention also have good herbicidal post-emergence action against a broad spectrum of economically important weed grasses and broad-leaf weeds.
Corresponding to the greenhouse experiments of sections 1 and 2, the tests were carried out in the open on plots. Scoring was carried out analogously to the tests in sections 1 and 2.
Certain combinations were tested for their herbicidal activity in accordance to the general example in section 3 in combination with section 2 (post-emergence method).

Festuca rubra = experiment: Outdoor trial, post-emergence herbicidal action against Festuca rubra
Protocol: as §1
as §2, with “The compositions according to the invention also have good herbicidal post-emergence action against a broad spectrum of economically important weed grasses and broad-leaf weeds.” left out

Poa trivialis = experiment: Outdoor trial, post-emergence herbicidal action against Poa trivialis
Protocol: as §1
as §2, with “The compositions according to the invention also have good herbicidal post-emergence action against a broad spectrum of economically important weed grasses and broad-leaf weeds.” left out

[1] = 200 g of AS/ha, application at stage 21 of the harmful plants, evaluation 35 days after treatment
[2] = 600 g of AS/ha, application at stage 21, evaluation 35 days after treatment

O=C(O)CNCP(=O)(O)O [(B2.1.2.1), N-(phosphonomethyl)glycine, reference compound]
Herbicidal action [%] against Lolium multiflorum (Lolium multiflorum; 1080 g of AS/ha): 18%

Cc1ccc2c(c1)[C@H](Nc1nc(N)nc([C@@H](C)F)n1)CC2 [(A11), 2-amino-4-[(1R)-6-methylindan-1-ylamino]-6-[(1R)-1-fluoroethyl]-1,3,5-triazine]
Herbicidal action [%] against Festuca rubra (Festuca rubra; [1]): 0% | Herbicidal action [%] against Lolium multiflorum (Lolium multiflorum; 200 g of AS/ha): 20% | Herbicidal action [%] against Lolium multiflorum (Lolium multiflorum; 300 g of AS/ha): 50% | Herbicidal action [%] against Poa trivialis (Poa trivialis; [1]): 0%

CP(=O)(O)CCC(N)C(=O)O (racemic) [(B2.1.1.1), 4-[hydroxy(methyl)phosphinoyl]-DL-homoalanine, reference compound]
Herbicidal action [%] against Festuca rubra (Festuca rubra; [2]): 87% | Herbicidal action [%] against Poa trivialis (Poa trivialis; [2]): 88%
